Measurements from US11229618B2 (Amarin Pharmaceuticals Ireland Limited, priority 2012, dated 2022).

Assay: AAMI 6-week study: essential fatty acid parameters in plasma (gas chromatography)
Format: in vivo, human
Details: plasma; for DPAn-3 1 or 2 g versus 4 g, LS Mean / EPA/AA 1 or 2 g versus 4 g, LS Mean: p-value <0.001
Experimental: A single-center, 6-week, double-blind, randomizes, parallel-group, placebo-controlled, dose-ranging pilot study was performed to evaluate the efficacy, tolerability, and safety of >96% ethyl-EPA in subjects with subjective and objective memory impairment according to generally accepted criteria for Age-Associated Memory Impairment (“AAMI”). The primary objective of the study was to determine the effect of >96% ethyl-EPA 1 g, 2 g, and 4 g daily, compared to placebo, on cognitive performance in subjects with AAMI.
Ninety-four subjects were randomized into one of six groups: 1 g E-EPA daily (n=23), 2 g E-EPA daily (n=24), 4 g E-EPA daily (n=24), 1 g placebo daily (n=7), 2 g placebo daily (n=8), and 4 g placebo daily (n=8). E-EPA was provided as 500 mg soft gel capsules containing>96% E-EPA and 0.2% dl-α-tocopherol as an antioxidant. Placebo capsules contained 467 mg of liquid paraffin and 0.2% dl-α-tocopherol. Ninety-one subjects completed the study. Two subjects in the 2 g E-EPA group and one subject in the 2 g placebo group discontinued the study.
Blood samples (10 mL) were collected at Visit 1 (screening) and at Visits 4, 5 and 6. Analysis was performed by MSR Lipid Analysis, Scottish Crop Research Institute, Dundee, UK. The screening sample acted as baseline for the EFA measurements. Lipid was extracted from plasma, serum and RBC suspensions and converted into fatty acid methyl esters which were analyzed by gas chromatography to give fatty acid profiles as micrograms fatty acid per gram of sample (μgFA/g) and normalized area percent.
RBC and plasma EFA data were collected at baseline, Day 14, 28 and 42 and summarized by visit for each treatment group. Change from baseline and percent change from baseline were also summarized. ANCOVA comparison of ethyl-EPA dose groups and ethyl-EPA versus placebo was performed.

SMILES: CC/C=C\C/C=C\C/C=C\C/C=C\C/C=C\CCCC(=O)OCC [IPE, all-cis eicosa-5,8,11,14,17-pentaenoic acid ethyl ester]
- DGLA 1 or 2 g versus 4 g, LS Mean (Ethyl-EPA 1 g versus 4 g, p-value 0.028): 3.7 µg/g
- DPAn-3 1 or 2 g versus 4 g, LS Mean (Ethyl-EPA 1 g versus 4 g): -15.1 µg/g
- EPA/AA 1 or 2 g versus 4 g, LS Mean (Ethyl-EPA 1 g versus 4 g): −0.66
- DGLA Mean change from Baseline, Mean (SD) (Ethyl-EPA 1 g, Day 14): −10.4 (10.90) μg/g
- DPAn-3 Mean change from Baseline, Mean (SD) (Ethyl-EPA 1 g, Day 14): 7.5 (5.11) μg/g
- EPA/AA Mean change from Baseline, Mean (SD) (Ethyl-EPA 1 g, Day 14): 0.3 (0.4)
- DGLA Mean change from Baseline, Mean (SD) (Ethyl-EPA 1 g, Day 28): −10.6 (10.23) μg/g
- DPAn-3 Mean change from Baseline, Mean (SD) (Ethyl-EPA 1 g, Day 28): 8.9 (5.62) μg/g
- EPA/AA Mean change from Baseline, Mean (SD) (Ethyl-EPA 1 g, Day 28): 0.3 (0.20)
- DGLA Mean change from Baseline, Mean (SD) (Ethyl-EPA 1 g, Day 42): −9.4 (9.41) μg/g
- DPAn-3 Mean change from Baseline, Mean (SD) (Ethyl-EPA 1 g, Day 42): 11.3 (6.61) μg/g
- EPA/AA Mean change from Baseline, Mean (SD) (Ethyl-EPA 1 g, Day 42): 0.3 (0.24)
- DGLA Baseline Mean (SD) (Ethyl-EPA 1 g): 51.2 (15.01) μg/g
- DPAn-3 Baseline Mean (SD) (Ethyl-EPA 1 g): 21.1 (6.62) μg/g
- EPA/AA Baseline Mean (SD) (Ethyl-EPA 1 g): 0.2 (0.14)
- DGLA 1 or 2 g versus 4 g, LS Mean (Ethyl-EPA 2 g versus 4 g, p-value 0.143): 2.5 µg/g
- DPAn-3 1 or 2 g versus 4 g, LS Mean (Ethyl-EPA 2 g versus 4 g): -9.5 µg/g
- EPA/AA 1 or 2 g versus 4 g, LS Mean (Ethyl-EPA 2 g versus 4 g): −0.41
- DGLA Mean change from Baseline, Mean (SD) (Ethyl-EPA 2 g, Day 14): −14.1 (6.88) μg/g
- DPAn-3 Mean change from Baseline, Mean (SD) (Ethyl-EPA 2 g, Day 14): 17.4 (7.49) μg/g
- EPA/AA Mean change from Baseline, Mean (SD) (Ethyl-EPA 2 g, Day 14): 0.6 (0.23)
- DGLA Mean change from Baseline, Mean (SD) (Ethyl-EPA 2 g, Day 28): −16.2 (9.88) μg/g
- DPAn-3 Mean change from Baseline, Mean (SD) (Ethyl-EPA 2 g, Day 28): 19.4 (8.48) μg/g
- EPA/AA Mean change from Baseline, Mean (SD) (Ethyl-EPA 2 g, Day 28): 0.8 (0.35)
- DPAn-3 Mean change from Baseline, Mean (SD) (Ethyl-EPA 2 g, Day 42): 19.3 (8.63) μg/g
- EPA/AA Mean change from Baseline, Mean (SD) (Ethyl-EPA 2 g, Day 42): 0.7 (0.29)
- DGLA Baseline Mean (SD) (Ethyl-EPA 2 g): 53.5 (14.12) μg/g
- DPAn-3 Baseline Mean (SD) (Ethyl-EPA 2 g): 19.7 (4.50) μg/g
- EPA/AA Baseline Mean (SD) (Ethyl-EPA 2 g): 0.2 (0.12)
- DGLA Mean change from Baseline, Mean (SD) (Ethyl-EPA 4 g, Day 14): −22.9 (9.00) μg/g
- DPAn-3 Mean change from Baseline, Mean (SD) (Ethyl-EPA 4 g, Day 14): 24.5 (11.28) μg/g
- EPA/AA Mean change from Baseline, Mean (SD) (Ethyl-EPA 4 g, Day 14): 1.1 (0.28)
- DGLA Mean change from Baseline, Mean (SD) (Ethyl-EPA 4 g, Day 28): −24.2 (10.73) μg/g
- DPAn-3 Mean change from Baseline, Mean (SD) (Ethyl-EPA 4 g, Day 28): 29.7 (13.23) μg/g
- EPA/AA Mean change from Baseline, Mean (SD) (Ethyl-EPA 4 g, Day 28): 1.3 (0.42)
- DGLA Mean change from Baseline, Mean (SD) (Ethyl-EPA 4 g, Day 42): −22.5 (10.87) μg/g
- DPAn-3 Mean change from Baseline, Mean (SD) (Ethyl-EPA 4 g, Day 42): 32.0 (16.01) μg/g
- EPA/AA Mean change from Baseline, Mean (SD) (Ethyl-EPA 4 g, Day 42): 1.3 (0.45)
- DGLA Baseline Mean (SD) (Ethyl-EPA 4 g): 57.1 (14.73) μg/g
- DPAn-3 Baseline Mean (SD) (Ethyl-EPA 4 g): 21.7 (4.69) μg/g
- EPA/AA Baseline Mean (SD) (Ethyl-EPA 4 g): 0.2 (0.07)
